Experiment: Antioxidant activity, linoleic acid peroxidation (ferric thiocyanate)
Assay type: biochemical
Conditions: cell free supernatant; linoleic acid 50 mM; negative control (MRS broth) Abs500 nm = 2
Experimental: Oxidation was measured by determining ferric thiocyanate. Butylated hydroxytoluene (BHT) and α-tocopherol (1 mg/mL) were used as positive controls. MRS broth was used as negative control. […] The analysis was carried out in triplicate.

**Q.** For Cc1c(C)c2c(c(C)c1O)CC[C@@](C)(CCC[C@H](C)CCC[C@H](C)CCCC(C)C)O2 [positive control, α-tocopherol], which “Antioxidant activity, absorbance values at 500nm” value is on record?
**A.** positive control: Abs500 nm = 0.25)

— patent publication US20230270797A1, “NOVEL STRAIN OF THE SPECIES LACTICASEIBADLLUS RHAMNOSUS, COMPOSITIONS THEREOF AND USE THEREOF IN THE TREATMENT OF GENITOURINARY INFECTIONS” (URIACH ITALY S.R.L., priority 2020, published 2023)
